In patent US12569467B2, “Small molecules that treat or prevent viral infections” (priority 2022, dated 2026):

Key:
[1] = tested on: SARS-CoV-2 variant Delta Spike protein pseudotyped lentiviral particles; test: microbe, parasite or virus in culture; format: cell-based, SARS-CoV-2 Delta variant; details: Severe acute respiratory syndrome coronavirus 2, HEK293, read-out: EC50, inhibition of infection of Delta variant
[2] = tested on: SARS-CoV-2 variant Omicron Spike protein pseudotyped lentiviral particles; test: microbe, parasite or virus in culture; format: cell-based, SARS-CoV-2 Omicron variant; details: Severe acute respiratory syndrome coronavirus 2, HEK293, read-out: EC50, inhibition of infection of Omicron variant
[3] = tested on: spike protein of Delta variant; format: binding, SARS-CoV2 Delta variant
[4] = tested on: spike protein of Omicron variant; format: binding, SARS-CoV2 Omicron variant

Question: Which results are given for O=C1Nc2ccccc2/C1=C\c1ccc(-c2cc(C(F)(F)F)cc(C(F)(F)F)c2)o1 [CD04872SC, 3-({5-[3,5-di(trifluoromethyl)phenyl]-2-furyl}methylidene)indolin-2-one]?
Answer: EC50 [1]: 152 µM; EC50 [2]: 308 µM; thermal stability change in presence of compound [3]: same stabilizing tendency; thermal stability change in presence of compound [4]: same stabilizing tendency
